Laboratory results: patent US8952024B2, “Herbicidal pyrimidone derivatives” (E I du Pont de Nemours and Company, priority 2009, dated 2015)

Assays:
Format in all cases: in vivo
[1] = test system: canarygrass (Phalaris minor); experiment: Test B postemergence plant response; conditions: Postemergence
Source text: (§1) At the same time, plants selected from these crop and weed species and also winter barley (Hordeum vulgare), canarygrass (Phalaris minor), chickweed (Stellaria media) and windgrass (Apera spica-venti) were planted in pots containing Redi-Earth® planting medium (Scotts Company, 14111 Scottslawn Road, Marysville, Ohio 43041) comprising spaghnum peat moss, vermiculite, wetting agent and starter nutrients and treated with postemergence applications of some of the test chemicals formulated in the same manner. Plants ranged in height from 2 to 18 cm (1- to 4-leaf stage) for postemergence treatments.
(§2) Treated plants and controls were maintained in a greenhouse for 13 to 15 days, after which time all treated plants were visually evaluated and compared to controls. Plant response ratings, summarized in Table B, are based on a scale of 0 to 100 where 0 is no effect and 100 is complete control. A dash (-) response means no test result.

[2] = test system: winter barley (Hordeum vulgare); experiment: Test B postemergence plant response; conditions: Postemergence
Source text: as §1, §2

[3] = test system: chickweed (Stellaria media); experiment: Test B postemergence plant response; conditions: Postemergence
Source text: as §1, §2

[4] = test system: windgrass (Apera spica-venti); experiment: Test B postemergence plant response; conditions: Postemergence
Source text: as §1, §2

[5] = test system: bermudagrass (Cynodon dactylon); experiment: Test B pre-/postemergence plant response
Source text: (§3) Seeds of plant species selected from blackgrass (Alopecurus myosuroides), downy bromegrass (Bromus tectorum), green foxtail (Setaria viridis), Italian ryegrass (Lolium multiflorum), wheat (Triticum aestivum), wild oat (Avena fatua), deadnettle (henbit deadnettle, Lamium amplexicaule), galium (catchweed bedstraw, Galium aparine), bermudagrass (Cynodon dactylon), Surinam grass (Brachiaria decumbens), cocklebur (Xanthium strumarium), corn (Zea mays), large crabgrass (Digitaria sanguinalis), woolly cupgrass (Eriochloa villosa), giant foxtail (Setaria faberii), goosegrass (Eleusine indica), johnsongrass (Sorghum halepense), kochia (Kochia scoparia), lambsquarters (Chenopodium album), morningglory (Ipomoea coccinea), nightshade (eastern black nightshade, Solanum ptycanthum), yellow nutsedge (Cyperus esculentus), pigweed (Amaranthus retroflexus), ragweed (common ragweed, Ambrosia elatior), Russian thistle (Salsola kali), soybean (Glycine max), sunflower (common oilseed sunflower, Helianthus annuus) and velvetleaf (Abutilon theophrasti) were planted into a blend of loam soil and sand and treated preemergence with test compounds formulated in a non-phytotoxic solvent mixture which included a surfactant.
as §1, §2

[6] = test system: morningglory (Ipomoea coccinea); experiment: Test B pre-/postemergence plant response
Source text: as §3, §1, §2

[7] = test system: cocklebur (Xanthium strumarium); experiment: Test B pre-/postemergence plant response
Source text: as §3, §1, §2

[8] = test system: johnsongrass (Sorghum halepense); experiment: Test B pre-/postemergence plant response
Source text: as §3, §1, §2

[9] = test system: corn (Zea mays); experiment: Test B pre-/postemergence plant response
Source text: as §3, §1, §2

[10] = test system: soybean (Glycine max); experiment: Test B pre-/postemergence plant response
Source text: as §3, §1, §2

[11] = test system: wild oat (Avena fatua); experiment: Test B pre-/postemergence plant response
Source text: as §3, §1, §2

[12] = test system: blackgrass (Alopecurus myosuroides); experiment: Test B pre-/postemergence plant response
Source text: as §3, §1, §2

[13] = test system: kochia (Kochia scoparia); experiment: Test B pre-/postemergence plant response
Source text: as §3, §1, §2

[14] = test system: giant foxtail (Setaria faberii); experiment: Test B pre-/postemergence plant response
Source text: as §3, §1, §2

[15] = 31 g ai/ha, scale 0 to 100 (0 no effect, 100 complete control)
[16] = 62 g ai/ha, scale 0 (no effect) to 100 (complete control), 13 to 15 days
[17] = 125 g ai/ha, visual rating after 13 to 15 days, scale 0 (no effect) to 100 (complete control)
[18] = 250 g ai/ha, Preemergence, 0 to 100 scale
[19] = Postemergence, 31 g ai/ha, scale 0 to 100 (0 no effect, 100 complete control)
[20] = Postemergence, 62 g ai/ha, scale 0 (no effect) to 100 (complete control), 13 to 15 days
[21] = Postemergence, 250 g ai/ha, scale 0 to 100
[22] = Preemergence, 31 g ai/ha, scale 0 to 100 (0 no effect, 100 complete control)
[23] = Preemergence, 62 g ai/ha, scale 0 to 100 (0 no effect, 100 complete control)
[24] = Preemergence, 125 g ai/ha, 0 to 100 scale
[25] = Postemergence, 125 g ai/ha, visual rating after 13 to 15 days, scale 0 (no effect) to 100 (complete control)

Substance: 3-cyclohexyl-5-[(2-hydroxy-6-oxo-1-cyclohexen-1-yl)carbonyl]-2-phenyl-4(3H)-pyrimidinone [Compound 128]
- Plant response rating, Canarygrass [1, 15]: 50
- Plant response rating, Canarygrass [1, 16]: 50
- Plant response rating, Canarygrass [1, 17]: 90
- Canarygrass plant response rating ([1]; 250 g ai/ha, scale 0 to 100): 90
- Plant response rating, Barley [2, 15]: 0
- Plant response rating, Barley [2, 16]: 10
- Plant response rating, Barley ([2]; 125 g ai/ha, scale 0 to 100 (0 no effect, 100 complete control), 13 to 15 days): 10
- Barley plant response rating ([2]; 250 g ai/ha, scale 0 to 100): 10
- Plant response rating, Chickweed [3, 15]: 80
- Plant response rating, Chickweed [3, 16]: 98
- Plant response rating, Chickweed [3, 17]: 100
- Chickweed plant response rating ([3]; 250 g ai/ha, scale 0 to 100): 100
- Plant response rating, Windgrass [4, 15]: 40
- Plant response rating, Windgrass [4, 16]: 85
- Plant response rating, Windgrass [4, 17]: 85
- Windgrass plant response rating ([4]; 250 g ai/ha, scale 0 to 100): 98
- Plant response rating, Bermudagrass [5, 18]: 100
- Plant response rating, Bermudagrass [5, 19]: 80
- Plant response rating, Bermudagrass [5, 20]: 100
- Plant response rating, Bermudagrass ([5]; Postemergence, 125 g ai/ha, scale 0 to 100 (0 no effect, 100 complete control), 13 to 15 days): 100
- Bermudagrass plant response rating [5, 21]: 100
- Plant response rating, Bermudagrass [5, 22]: 98
- Plant response rating, Bermudagrass [5, 23]: 100
- Bermudagrass plant response rating [5, 24]: 100
- Plant response rating, Morningglory [6, 18]: 100
- Plant response rating, Morningglory [6, 19]: 15
- Plant response rating, Morningglory [6, 20]: 15
- Plant response rating, Morningglory [6, 25]: 70
- Morningglory plant response rating [6, 21]: 80
- Plant response rating, Morningglory [6, 22]: 0
- Plant response rating, Morningglory [6, 23]: 0
- Morningglory plant response rating [6, 24]: 35
- Plant response rating, Cocklebur [7, 18]: 100
- Plant response rating, Cocklebur [7, 19]: 90
- Plant response rating, Cocklebur [7, 20]: 100
- Plant response rating, Cocklebur [7, 25]: 100
- Cocklebur plant response rating [7, 21]: 100
- Plant response rating, Cocklebur [7, 22]: 35
- Plant response rating, Cocklebur [7, 23]: 75
- Cocklebur plant response rating [7, 24]: 95
- Plant response rating, Johnsongrass [8, 18]: 98
- Plant response rating, Johnsongrass [8, 19]: 65
- Plant response rating, Johnsongrass [8, 20]: 70
- Plant response rating, Johnsongrass [8, 25]: 90
- Johnsongrass plant response rating [8, 21]: 98
- Plant response rating, Johnsongrass [8, 22]: 0
- Plant response rating, Johnsongrass [8, 23]: 55
- Johnsongrass plant response rating [8, 24]: 85
- Plant response rating, Corn [9, 18]: 35
- Plant response rating, Corn [9, 19]: 70
- Plant response rating, Corn [9, 20]: 75
- Plant response rating, Corn [9, 25]: 80
- Corn plant response rating [9, 21]: 85
- Plant response rating, Corn [9, 22]: 0
- Plant response rating, Corn [9, 23]: 0
- Corn plant response rating [9, 24]: 0
- Plant response rating, Soybean [10, 18]: 95
- Plant response rating, Soybean [10, 19]: 100
- Plant response rating, Soybean [10, 20]: 100
- Plant response rating, Soybean [10, 25]: 100
- Soybean plant response rating [10, 21]: 100
- Plant response rating, Soybean [10, 22]: 25
- Plant response rating, Soybean [10, 23]: 45
- Soybean plant response rating [10, 24]: 65
- Plant response rating, Oat, Wild [11, 18]: 40
- Plant response rating, Oat, Wild [11, 19]: 50
- Plant response rating, Oat, Wild [11, 20]: 50
- Plant response rating, Oat, Wild [11, 25]: 70
- Oat, Wild plant response rating [11, 21]: 70
- Plant response rating, Oat, Wild [11, 22]: 0
- Plant response rating, Oat, Wild [11, 23]: 0
- Oat, Wild plant response rating [11, 24]: 10
- Plant response rating, Blackgrass [12, 18]: 60
- Plant response rating, Blackgrass [12, 19]: 5
- Plant response rating, Blackgrass [12, 20]: 5
- Plant response rating, Blackgrass [12, 25]: 40
- Blackgrass plant response rating [12, 21]: 40
- Plant response rating, Blackgrass [12, 22]: 0
- Plant response rating, Blackgrass [12, 23]: 5
- Blackgrass plant response rating [12, 24]: 30
- Plant response rating, Kochia [13, 18]: 100
- Plant response rating, Kochia [13, 19]: 25
- Plant response rating, Kochia [13, 20]: 25
- Plant response rating, Kochia [13, 25]: 75
- Kochia plant response rating [13, 21]: 98
- Plant response rating, Kochia [13, 22]: 15
- Plant response rating, Kochia [13, 23]: 100
- Kochia plant response rating [13, 24]: 100
- Plant response rating, Foxtail, Giant [14, 18]: 100
- Plant response rating, Foxtail, Giant [14, 19]: 75
- Plant response rating, Foxtail, Giant [14, 20]: 85
- Plant response rating, Foxtail, Giant [14, 25]: 98
- Foxtail, Giant plant response rating [14, 21]: 100
- Plant response rating, Foxtail, Giant [14, 22]: 0
- Plant response rating, Foxtail, Giant [14, 23]: 35
- Foxtail, Giant plant response rating [14, 24]: 75
